According to patent US20080242681A1, “N-4-(6-(Hetero)Aryl-Pyrimidin-4-Ylaminophenyl)-Benzenesulfonamides as Kinase Inhibitors” (Altana Pharma AG, priority 2004, published 2008):
Structures can show the parent of a compound that is named as a salt. One block for each compound: values may come before it.

Columns and labels:
Assay type in all cases: biochemical
PKA = target: T1, PKA (Homo sapiens, UniProt P17612); assay: Protein Kinase A assay (SPA); details: human recombinant PKA, read-out: IC50, inhibition of PKA
T1 construct: purchased Panvera
Description: (§1) The compounds of formula 1 are tested for their activity on different protein kinases and PKC isoforms using a scintillation proximity assay (SPA, Amersham International plc). ^33P-labeled peptides are captured onto streptavidin coated yttrium silicate SPA beads. β-particles, emitted from the captured ^33P-labeled substrate in close proximity to the bead are able to excite the scintillant, resulting in the generation of quantifiable light. The assay is performed in a 96-well polystyrene microtiterplate (1450-514, Isoplates, Wallac, Turku, Finland). The reaction mixture (50 μl) contains 10 μl of the test compound together with 10 μl of the relevant kinase, diluted in the relevant dilution buffer, 5 μl of 10 μM phorbol myristate acetate (PMA) in H2O, 5 μl of 1.6 mM phosphatidylserine (Sigma-Aldrich Chemie GmbH, Stein-heim, Germany) in 20 mM Tris/HCL buffer pH 7.4, 5 μl of 0.3% BSA in H2O, 5 μl of 30 μM relevant substrate and 10 μl of 5 μM ATP and 0.1 μCi of ^33P-ATP (Amersham, Freiburg, Germany) in 200 mM Tris/HCL pH 7.5 and 200 mM MgCl2. Incubation is performed for 40 min at room temperature (RT) without shaking. Reaction is stopped by adding 150 μl of cold stop solution containing 10 mM ATP, 5 mM EGTA pH 7.5, 0.1% Triton X-100 and 0.2 mg streptavidin coated yttrium silicate SPA beads (Amersham, RPNQ 0012). The sealed plate is incubated for 60 min at RT. Thereafter the MTP is counted in a Microbeta Jet (Wallac). IC50 measurement is performed on a routine basis by incubation a serial dilution of inhibitor at concentrations ranging between 0.01 and 100 μM according to the method described above. Background values are the signals of the reaction mixture without addition of the relevant kinase and are subtracted from all values. 100% values are the signals of the reaction mixture without addition of inhibitors.
Human recombinant PKA was obtained from Panvera and is used in a scintillation proximity assay described in Section A.1. […] Thereafter the MTP is counted in a Microbeta Jet (Wallac). […] IC50 values are calculated from the graph by sigmoidal curve fitting.

PKCε = target: T2, PKCε (Homo sapiens, UniProt Q02156); assay: Protein Kinase C ε assay (SPA); details: human recombinant PKCε, PKCη pseudosubstrate, read-out: IC50, inhibition of PKC ε
T2 construct: purchased Panvera
T2 sequence (Q02156 1-737): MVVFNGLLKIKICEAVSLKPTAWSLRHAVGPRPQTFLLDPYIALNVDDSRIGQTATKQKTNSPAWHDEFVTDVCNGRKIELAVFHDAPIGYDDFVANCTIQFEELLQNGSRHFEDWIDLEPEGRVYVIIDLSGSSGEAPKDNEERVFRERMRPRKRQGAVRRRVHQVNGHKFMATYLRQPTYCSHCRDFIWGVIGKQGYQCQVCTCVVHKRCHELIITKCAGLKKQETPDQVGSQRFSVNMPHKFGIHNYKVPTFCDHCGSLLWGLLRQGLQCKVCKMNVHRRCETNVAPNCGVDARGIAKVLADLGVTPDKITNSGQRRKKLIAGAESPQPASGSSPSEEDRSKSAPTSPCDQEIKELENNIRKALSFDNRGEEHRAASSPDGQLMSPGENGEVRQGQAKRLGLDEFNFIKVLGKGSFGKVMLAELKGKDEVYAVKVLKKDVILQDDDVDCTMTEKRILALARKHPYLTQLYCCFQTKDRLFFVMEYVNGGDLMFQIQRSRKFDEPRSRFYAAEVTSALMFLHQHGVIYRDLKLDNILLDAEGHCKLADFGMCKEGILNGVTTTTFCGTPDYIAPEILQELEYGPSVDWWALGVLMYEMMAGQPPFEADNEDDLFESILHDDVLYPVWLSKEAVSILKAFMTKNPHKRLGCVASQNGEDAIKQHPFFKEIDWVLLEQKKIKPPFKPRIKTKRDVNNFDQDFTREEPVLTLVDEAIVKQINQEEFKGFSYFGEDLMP
Description: as §1
Dependent on the efficacy of the inhibitors In the various test systems, corresponding IC50 values are calculated from concentration-inhibition curves by nonlinear regression analysis using the program GraphPad Prism (GraphPad Software Inc., San Diego, Calif.).
Human recombinant PKCε was obtained from Panvera and is used under the assay conditions as described above (Section A.1). The enzyme is diluted in PKC dilution buffer containing 1 mM Hepes pH 7.4, 0.5 mM DTT and 0.001% Triton X-100. The kinase reaction is performed with the biotinylated PKCη pseudosubstrate solved in H2O.

Lck = target: T3, Lck (Homo sapiens, UniProt P06239); assay: Lck (p56Lck) assay (SPA); details: human recombinant Lck, read-out: IC50, inhibition of Lck
T3 construct: purchased Upstate (Dundee, UK)
Description: (§2) The compounds of formula 1 are tested for their activity on different protein kinases and PKC isoforms using a scintillation proximity assay (SPA, Amersham International plc). ^33P-labeled peptides are captured onto streptavidin coated yttrium silicate SPA beads. β-particles, emitted from the captured ^33P-labeled substrate in close proximity to the bead are able to excite the scintillant, resulting in the generation of quantifiable light. The assay is performed in a 96-well polystyrene microtiterplate (1450-514, Isoplates, Wallac, Turku, Finland). The reaction mixture (50 μl) contains 10 μl of the test compound together with 10 μl of the relevant kinase, diluted in the relevant dilution buffer, 5 μl of 10 μM phorbol myristate acetate (PMA) in H2O, 5 μl of 1.6 mM phosphatidylserine (Sigma-Aldrich Chemie GmbH, Stein-heim, Germany) in 20 mM Tris/HCL buffer pH 7.4, 5 μl of 0.3% BSA in H2O, 5 μl of 30 μM relevant substrate and 10 μl of 5 μM ATP and 0.1 μCi of ^33P-ATP (Amersham, Freiburg, Germany) in 200 mM Tris/HCL pH 7.5 and 200 mM MgCl2. […] Thereafter the MTP is counted in a Microbeta Jet (Wallac). […]
Human recombinant Lck was obtained from Upstate (Dundee, UK) and is used in a scintillation proximity assay described in Section A.1. […] Thereafter the MTP is counted in a Microbeta Jet (Wallac). […] IC50 values are calculated from the graph by sigmoidal curve fitting. […]

PKCζ = target: T4, PKCζ (Homo sapiens, UniProt Q05513); assay: Protein Kinase C ζ assay (SPA); details: human recombinant PKCζ, absence of PMA and phosphatidylserine, read-out: IC50, inhibition of PKC ζ
T4 construct: purchased Panvera
T4 sequence (Q05513 1-592): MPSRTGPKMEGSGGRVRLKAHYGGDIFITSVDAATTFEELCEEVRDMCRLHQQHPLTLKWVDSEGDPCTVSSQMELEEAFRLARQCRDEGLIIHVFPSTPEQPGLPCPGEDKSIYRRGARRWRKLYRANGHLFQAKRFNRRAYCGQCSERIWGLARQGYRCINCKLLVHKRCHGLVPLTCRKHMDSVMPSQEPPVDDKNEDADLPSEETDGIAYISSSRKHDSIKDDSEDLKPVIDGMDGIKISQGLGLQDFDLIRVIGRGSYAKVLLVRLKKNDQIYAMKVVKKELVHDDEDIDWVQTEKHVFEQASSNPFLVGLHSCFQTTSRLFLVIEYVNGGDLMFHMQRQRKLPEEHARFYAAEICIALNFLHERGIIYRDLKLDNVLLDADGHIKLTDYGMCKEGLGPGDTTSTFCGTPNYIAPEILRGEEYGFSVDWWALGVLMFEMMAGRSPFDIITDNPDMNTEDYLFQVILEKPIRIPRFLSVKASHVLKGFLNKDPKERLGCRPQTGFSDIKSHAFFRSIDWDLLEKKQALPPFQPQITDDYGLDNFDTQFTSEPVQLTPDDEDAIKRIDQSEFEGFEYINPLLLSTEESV
Description: as §2
(§3) Dependent on the efficacy of the inhibitors In the various test systems, corresponding IC50 values are calculated from concentration-inhibition curves by nonlinear regression analysis using the program GraphPad Prism (GraphPad Software Inc., San Diego, Calif.). […]

PKCι = target: T5, PKCι (Homo sapiens, UniProt P41743); assay: Protein Kinase C ι assay (SPA); details: human recombinant PKCι from Sf21 insect cells, absence of PMA and phosphatidylserine, read-out: IC50, inhibition of PKC ι
T5 construct: made in house; host or cells: Sf21 insect cells
T5 sequence (P41743 1-596): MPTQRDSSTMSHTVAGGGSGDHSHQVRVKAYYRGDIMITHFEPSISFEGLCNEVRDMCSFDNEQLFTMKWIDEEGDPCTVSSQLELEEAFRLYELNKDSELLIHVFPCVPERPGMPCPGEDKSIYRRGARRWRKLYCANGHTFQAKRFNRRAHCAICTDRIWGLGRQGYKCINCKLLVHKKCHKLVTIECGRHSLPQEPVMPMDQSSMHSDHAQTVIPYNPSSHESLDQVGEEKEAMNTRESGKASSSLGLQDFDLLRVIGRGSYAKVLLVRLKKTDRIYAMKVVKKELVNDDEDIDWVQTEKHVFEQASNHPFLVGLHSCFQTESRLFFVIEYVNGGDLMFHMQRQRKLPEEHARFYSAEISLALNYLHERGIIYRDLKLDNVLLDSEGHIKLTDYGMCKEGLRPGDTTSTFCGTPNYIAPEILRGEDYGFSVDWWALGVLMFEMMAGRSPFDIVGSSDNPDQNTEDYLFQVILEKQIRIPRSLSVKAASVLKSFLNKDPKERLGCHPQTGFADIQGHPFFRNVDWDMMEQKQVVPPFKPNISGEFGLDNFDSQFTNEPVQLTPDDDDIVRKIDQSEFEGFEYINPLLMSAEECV
Description: as §1, §3

T3 sequence (P06239 whole entry): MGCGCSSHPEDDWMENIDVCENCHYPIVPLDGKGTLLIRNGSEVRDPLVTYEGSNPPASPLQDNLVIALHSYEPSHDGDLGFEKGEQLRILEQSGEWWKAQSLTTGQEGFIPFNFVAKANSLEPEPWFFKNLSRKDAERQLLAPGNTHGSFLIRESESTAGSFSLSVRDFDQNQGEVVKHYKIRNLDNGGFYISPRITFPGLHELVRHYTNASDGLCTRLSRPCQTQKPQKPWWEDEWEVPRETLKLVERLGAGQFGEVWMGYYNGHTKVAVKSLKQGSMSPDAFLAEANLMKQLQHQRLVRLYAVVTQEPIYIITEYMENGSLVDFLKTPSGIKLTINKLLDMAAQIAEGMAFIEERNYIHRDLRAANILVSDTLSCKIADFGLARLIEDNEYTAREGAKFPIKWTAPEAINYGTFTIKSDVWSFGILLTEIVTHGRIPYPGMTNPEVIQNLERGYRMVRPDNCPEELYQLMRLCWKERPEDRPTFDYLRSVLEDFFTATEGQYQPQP

IC50 (PKA): 3 to 16 µM
SMILES: O=S(=O)(Nc1ccc(Nc2cc(-c3cccc4ccccc34)ncn2)cc1)c1ccc(Cl)c(Cl)c1 [Example 10, 3,4-Dichloro-N-[4-(6-naphthalen-1-yl-pyrimidin-4-ylamino)-phenyl]-benzenesulfonamide]

IC50 (PKA): 3 to 16 µM
SMILES: O=S(=O)(Nc1ccc(Nc2cc(-c3ccc4[nH]ccc4c3)ncn2)cc1)c1cccc(F)c1 [Example 121, 3-Fluoro-N-{4-[6-(1H-indol-5-yl)-pyrimidin-4-ylamino]-phenyl}-benzenesulfonamide]

IC50 (Lck): < 3 µM
SMILES: COc1ccc(S(=O)(=O)Nc2ccc(Nc3cc(-c4ccc5c(ccn5CCCN(C)C)c4)ncn3)cc2)cc1 [Example 131, N-(4-[6-[1-(3-Dimethylamino-propyl)-1H-indol-5-yl]pyrimidin-4-ylamino]phenyl)-4-methoxy-benzenesulfonamide]

Further lines, the compound ahead of its results:

SMILES: Cc1csc(-c2cc(Nc3ccc(NS(=O)(=O)c4c(F)cccc4F)cc3)ncn2)c1 [Example 117, 2,6-Difluoro-N-{4-[6-(4-methyl-thiophen-2-yl)-pyrimidin-4-ylamino]-phenyl}-benzenesulfonamide]
IC50 (PKCε): 4 to 21 µM
IC50 (PKA): 3 to 16 µM

SMILES: O=S(=O)(Nc1ccc(Nc2cc(-c3ccc4c(ccn4CCCN4CCCC4)c3)ncn2)cc1)c1c(F)cccc1F [Example 143, 2,6-Difluoro-N-(4-{6-[1-(3-pyrrolidin-1-yl-propyl)-1H-indol-5-yl]-pyrimidin-4-ylamino}-phenyl)-benzenesulfonamide formic acid salt]
IC50 (PKCζ): 15 to 25 µM

SMILES: COc1ccc(S(=O)(=O)Nc2ccc(Nc3cc(-c4ccc5c(ccn5CCCN5CCCC5)c4)ncn3)cc2)cc1 [Example 145, 4-Methoxy-N-(4-{6-[1-(3-pyrrolidin-1-yl-propyl)-1H-indol-5-yl]-pyrimidin-4-ylamino}-phenyl)-benzenesulfonamide formic acid salt]
IC50 (PKCι): 7 to 34 µM

SMILES: CN1CCN(CCCn2ccc3cc(-c4cc(Nc5ccc(NS(=O)(=O)c6ccc(F)c(Cl)c6)cc5)ncn4)ccc32)CC1 [Example 162, 3-Chloro-4-fluoro-N-[4-(6-{1-[3-(4-methyl-piperazin-1-yl)-propyl]-1H-indol-5-yl}-pyrimidin-4-ylamino)-phenyl]-benzenesulfonamide formic acid salt]
IC50 (PKCι): 7 to 34 µM

SMILES: CCN(CC)CCCn1cc(-c2cc(Nc3ccc(NS(=O)(=O)c4ccc(F)cc4F)cc3)ncn2)c2ccccc21 [Example 175, N-(4-{6-[1-(3-Diethylamino-propyl)-1H-indol-3-yl]-pyrimidin-4-ylamino}-phenyl)-2,4-difluoro-benzenesulfonamide formic acid salt]
IC50 (PKCζ): 15 to 25 µM
